Measurements from patent publication US20050209157A1, “Short bioactive peptides and methods for their use” (priority 2001, published 2005).
No end group written: not given here.

Each substance was assayed on Pseudomonas aeruginosa ATCC 9027 (assay: Antimicrobial assay I, MIC by OD measurement). Conditions: 37° C. for 24 hours, absorbance 620 nm.
Type: cell-based
For FAKLLAKLAKAKG-NH2 [P96], the “paerug9027 (MIC)” value was “> (> indicates greater than 200 μg/mL)”.
With FALAKALKKAL-NH2 [P166, FALAKALKKAL-NH2] the “paerug9027 (MIC)” value was “> (> indicates greater than 200 μg/mL)”.
FAKIIAKIAKKI-NH2 [P143] was tested, and the “paerug9027 (MIC)” value was 50 mg/L.
With FAKKALKALKKL-NH2 [P47] the “paerug9027 (MIC)” value was 100 mg/L.
For “FAKGVGKVGKKAL-NH2 [P137, FAKGVGKVGKKAL-NH2]”, the “paerug9027 (MIC)” value was “> (> indicates greater than 200 μg/mL)”.
In the case of “FAKLLAKAFKKAL-NH2 [P114, FAKLLAKAFKKAL-NH2]”, the “paerug9027 (MIC)” value is reported as 15 mg/L.

What follows are substances tested on Staphylococcus aureus ATCC 6538 (assay: Antimicrobial assay I, MIC by OD measurement). Conditions: 37° C. for 24 hours, absorbance 620 nm.
Type: cell-based
In the case of FAKLLAKLAKAKG-NH2 [P96], the “staph6538 (MIC)” value is reported as “> (> indicates greater than 200 μg/mL)”.
For FALAKALKKAL-NH2 [P166, FALAKALKKAL-NH2], the “staph6538 (MIC)” value was “> (> indicates greater than 200 μg/mL)”.
FAKIIAKIAKKI-NH2 [P143] was tested, and the “staph6538 (MIC)” value was 100 mg/L.
FAKKALKALKKL-NH2 [P47] was tested, and the “staph6538 (MIC)” value was 200 mg/L.
In the case of “FAKGVGKVGKKAL-NH2 [P137, FAKGVGKVGKKAL-NH2]”, the “staph6538 (MIC)” value is reported as “> (> indicates greater than 200 μg/mL)”.
“FAKLLAKAFKKAL-NH2 [P114, FAKLLAKAFKKAL-NH2]” was tested, and the “staph6538 (MIC)” value was 50 mg/L.

These substances were tested on yeast (Saccharomyces cerevisiae) (assay: Antimicrobial assay I, yeast assay in RPMI 1640). Conditions: RPMI 1640 media.
Type: cell-based
With FAKLLAKLAKAKG-NH2 [P96] the “yeast (MIC or MFC)” value was “> (> indicates greater than 200 μg/mL)”.
In the case of FALAKALKKAL-NH2 [P166, FALAKALKKAL-NH2], the “yeast (MIC or MFC)” value is reported as “> (> indicates greater than 200 μg/mL)”.
FAKIIAKIAKKI-NH2 [P143] was tested, and the “yeast (MIC or MFC)” value was 200 mg/L.
FAKKALKALKKL-NH2 [P47] was tested, and the “yeast (MIC or MFC)” value was 50 mg/L.
“FAKGVGKVGKKAL-NH2 [P137, FAKGVGKVGKKAL-NH2]” was tested, and the “yeast (MIC or MFC)” value was “> (> indicates greater than 200 μg/mL)”.
“FAKLLAKAFKKAL-NH2 [P114, FAKLLAKAFKKAL-NH2]” was tested, and the “yeast (MIC or MFC)” value was 100 mg/L.

These substances were tested on BMKC (assay: Anti-cancer assay, MTT, LD50). Conditions: BMKC cloned melanoma line, 24 hours with peptide.
Type: cell-based
Description: (§1) Numbers are LD50 values (μg/mL).
With FAKLLAKLAKAKG-NH2 [P96] the “LD50 BMKC” value was “> (> indicates greater than 1000)”.
In the case of FALAKALKKAL-NH2 [P166, FALAKALKKAL-NH2], the “LD50 BMKC” value is reported as “> (> indicates greater than 1000)”.
In the case of FAKIIAKIAKKI-NH2 [P143], the “LD50 BMKC” value is reported as “> (> indicates greater than 1000)”.
With FAKKALKALKKL-NH2 [P47] the “LD50 BMKC” value was 700 µg/mL.
With “FAKGVGKVGKKAL-NH2 [P137, FAKGVGKVGKKAL-NH2]” the “LD50 BMKC” value was “> (> indicates greater than 1000)”.
With “FAKLLAKAFKKAL-NH2 [P114, FAKLLAKAFKKAL-NH2]” the “LD50 BMKC” value was “> (> indicates greater than 1000)”.

These substances were tested on H1299 (assay: Anti-cancer assay, MTT, LD50). Conditions: 24 hours with peptide, lung large cell carcinoma.
Type: cell-based
Description: as §1
For FAKLLAKLAKAKG-NH2 [P96], the “H1299 LD50” value was “> (> indicates greater than 1000)”.
With FALAKALKKAL-NH2 [P166, FALAKALKKAL-NH2] the “H1299 LD50” value was “> (> indicates greater than 1000)”.
With FAKIIAKIAKKI-NH2 [P143] the “H1299 LD50” value was “> (> indicates greater than 1000)”.
For FAKKALKALKKL-NH2 [P47], the “H1299 LD50” value was “> (> indicates greater than 1000)”.
With “FAKGVGKVGKKAL-NH2 [P137, FAKGVGKVGKKAL-NH2]” the “H1299 LD50” value was “> (> indicates greater than 1000)”.
With “FAKLLAKAFKKAL-NH2 [P114, FAKLLAKAFKKAL-NH2]” the “H1299 LD50” value was “> (> indicates greater than 1000)”.

These substances were tested on HeLaS3 (assay: Anti-cancer assay, MTT, LD50). Conditions: 24 hours with peptide, cervical carcinoma.
Type: cell-based
Description: as §1
With FAKLLAKLAKAKG-NH2 [P96] the “HeLaS3 LD50” value was “> (> indicates greater than 1000)”.
With FALAKALKKAL-NH2 [P166, FALAKALKKAL-NH2] the “HeLaS3 LD50” value was “> (> indicates greater than 1000)”.
For FAKIIAKIAKKI-NH2 [P143], the “HeLaS3 LD50” value was “> (> indicates greater than 1000)”.
With FAKKALKALKKL-NH2 [P47] the “HeLaS3 LD50” value was “> (> indicates greater than 1000)”.
With “FAKGVGKVGKKAL-NH2 [P137, FAKGVGKVGKKAL-NH2]” the “HeLaS3 LD50” value was “> (> indicates greater than 1000)”.
For “FAKLLAKAFKKAL-NH2 [P114, FAKLLAKAFKKAL-NH2]”, the “HeLaS3 LD50” value was “> (> indicates greater than 1000)”.

These substances were tested on MCF7 (assay: Anti-cancer assay, MTT, LD50). Conditions: MCF7 breast adenocarcinoma line, MTT, 24 hours with peptide.
Type: cell-based
Description: as §1
For FAKLLAKLAKAKG-NH2 [P96], the “LD50 MCF7” value was “> (> indicates greater than 1000)”.
FALAKALKKAL-NH2 [P166, FALAKALKKAL-NH2] was tested, and the “LD50 MCF7” value was “> (> indicates greater than 1000)”.
FAKIIAKIAKKI-NH2 [P143] was tested, and the “LD50 MCF7” value was “> (> indicates greater than 1000)”.
In the case of FAKKALKALKKL-NH2 [P47], the “LD50 MCF7” value is reported as 575 µg/mL.
With “FAKGVGKVGKKAL-NH2 [P137, FAKGVGKVGKKAL-NH2]” the “LD50 MCF7” value was “> (> indicates greater than 1000)”.
In the case of “FAKLLAKAFKKAL-NH2 [P114, FAKLLAKAFKKAL-NH2]”, the “LD50 MCF7” value is reported as 730 µg/mL.

The substances below were run on PC3 (assay: Anti-cancer assay, MTT, LD50). Conditions: 24 hours with peptide, prostate adenocarcinoma.
Type: cell-based
Description: as §1
For FAKLLAKLAKAKG-NH2 [P96], the “PC3 LD50” value was “> (> indicates greater than 1000)”.
In the case of FALAKALKKAL-NH2 [P166, FALAKALKKAL-NH2], the “PC3 LD50” value is reported as “> (> indicates greater than 1000)”.
For FAKIIAKIAKKI-NH2 [P143], the “PC3 LD50” value was “> (> indicates greater than 1000)”.
With FAKKALKALKKL-NH2 [P47] the “PC3 LD50” value was “> (> indicates greater than 1000)”.
For “FAKGVGKVGKKAL-NH2 [P137, FAKGVGKVGKKAL-NH2]”, the “PC3 LD50” value was “> (> indicates greater than 1000)”.
“FAKLLAKAFKKAL-NH2 [P114, FAKLLAKAFKKAL-NH2]” was tested, and the “PC3 LD50” value was “> (> indicates greater than 1000)”.

Each substance was assayed on SW480 (assay: Anti-cancer assay, MTT, LD50). Conditions: SW480 colon adenocarcinoma line, 24 hours with peptide.
Type: cell-based
Description: as §1
With FAKLLAKLAKAKG-NH2 [P96] the “LD50 SW480” value was “> (> indicates greater than 1000)”.
With FALAKALKKAL-NH2 [P166, FALAKALKKAL-NH2] the “LD50 SW480” value was “> (> indicates greater than 1000)”.
For FAKIIAKIAKKI-NH2 [P143], the “LD50 SW480” value was “> (> indicates greater than 1000)”.
FAKKALKALKKL-NH2 [P47] was tested, and the “LD50 SW480” value was “> (> indicates greater than 1000)”.
“FAKGVGKVGKKAL-NH2 [P137, FAKGVGKVGKKAL-NH2]” was tested, and the “LD50 SW480” value was “> (> indicates greater than 1000)”.
For “FAKLLAKAFKKAL-NH2 [P114, FAKLLAKAFKKAL-NH2]”, the “LD50 SW480” value was “> (> indicates greater than 1000)”.

Each substance was assayed on human red blood cells (RBC) (assay: in vitro). Conditions: hemolytic assay, concentration at 50% hemolysis, 1 hour at 37° C.
Type: cell-based
FAKLLAKLAKAKG-NH2 [P96] was tested, and the LD50 was “> (> indicates greater than 1000)”.
FALAKALKKAL-NH2 [P166, FALAKALKKAL-NH2] was tested, and the LD50 was “> (> indicates greater than 1000)”.
FAKIIAKIAKKI-NH2 [P143] was tested, and the LD50 was “> (> indicates greater than 1000)”.
With FAKKALKALKKL-NH2 [P47] the LD50 was “> (> indicates greater than 1000)”.
In the case of “FAKGVGKVGKKAL-NH2 [P137, FAKGVGKVGKKAL-NH2]”, the LD50 is reported as “> (> indicates greater than 1000)”.
With “FAKLLAKAFKKAL-NH2 [P114, FAKLLAKAFKKAL-NH2]” the LD50 was “> (> indicates greater than 1000)”.

Each substance was assayed on WI38 (assay: not given). Conditions: MTT, 24 hours with peptide; normal fibroblast line.
With FAKLLAKLAKAKG-NH2 [P96] the “WI38 LD50” value was “> (> indicates greater than 1000)”.
With FALAKALKKAL-NH2 [P166, FALAKALKKAL-NH2] the “WI38 LD50” value was “> (> indicates greater than 1000)”.
In the case of FAKIIAKIAKKI-NH2 [P143], the “WI38 LD50” value is reported as “> (> indicates greater than 1000)”.
For FAKKALKALKKL-NH2 [P47], the “WI38 LD50” value was “> (> indicates greater than 1000)”.
For “FAKGVGKVGKKAL-NH2 [P137, FAKGVGKVGKKAL-NH2]”, the “WI38 LD50” value was “> (> indicates greater than 1000)”.
In the case of “FAKLLAKAFKKAL-NH2 [P114, FAKLLAKAFKKAL-NH2]”, the “WI38 LD50” value is reported as “> (> indicates greater than 1000)”.

Same assay, conditions: WI38 normal lung fibroblast line, MTT, 24 hours with peptide
In the case of FAKLLAKLAKAKG-NH2 [P96], the “LD50 WI38” value is reported as “> (> indicates greater than 1000)”.
FALAKALKKAL-NH2 [P166, FALAKALKKAL-NH2] was tested, and the “LD50 WI38” value was “> (> indicates greater than 1000)”.
For FAKIIAKIAKKI-NH2 [P143], the “LD50 WI38” value was “> (> indicates greater than 1000)”.
For FAKKALKALKKL-NH2 [P47], the “LD50 WI38” value was “> (> indicates greater than 1000)”.
For “FAKGVGKVGKKAL-NH2 [P137, FAKGVGKVGKKAL-NH2]”, the “LD50 WI38” value was “> (> indicates greater than 1000)”.
In the case of “FAKLLAKAFKKAL-NH2 [P114, FAKLLAKAFKKAL-NH2]”, the “LD50 WI38” value is reported as “> (> indicates greater than 1000)”.
